Consider 15 molecules from US10544156B2, “Hemi-synthetic trilobine analogs for use as a drug” (PIERRE FABRE MEDICAMENT, priority 2015, dated 2020).

Structures are written as SMILES. Where two headings read alike, the source gives them in different places.

For experiment [1], the target named is T1, human C-terminal DNMT3A (623-908a.a.) (Homo sapiens, UniProt Q9Y6K1).
T1 construct: The human C-terminal DNMT3A (623-908a.a.); made in house
Briefly: hDNMT3A assay (restriction-based fluorescence assay). It counts as biochemical. Conditions: for inhibition at 10 µM: read-out: hDNMT 3A inhibition, Inhibition (%) 10 μM; for inhibition at 32 µM: read-out: hDNMT 3A inhibition, Inhibition (%) 32 μM. An excerpt:
hDNMT3A enzyme inhibition was adapted from the restriction-based fluorescence assay protocol as described in the literature (Ceccaldi et al. Chem Bio Chem 2011, 12, 1337-1345). Briefly, a 5′-labelled biotin oligonucleotide is hybridized to its complementary strand labelled with 6-carboxyfluorescein at the 3′-end into a 384 well microplate (black Optiplates; Perkin Elmer) pre-coated with avidin. The duplex contains a unique CpG site overlapping with a restriction site of a methylation sensitive restriction enzyme. The human C-terminal DNMT3A (623-908a.a.), produced as described in (Gros et al. Nucl. Acids Res. 2013, 41(19):e185), was added in each well (200 ng/well) and mixed with the chemical compounds at desired concentrations and freshly prepared SAM (20 μM final concentration) to start the reaction in a total volume of 50 μL. After 1 hour incubation at 37° C. each well were washed three times with PBS, Tween-20 0.05%, NaCl (500 mM) and three more times with PBST. Specific fluorescent signals were detected with the methylation-sensitive restriction enzyme HpyCH4IV (NEB) as described and measured on a Perkin Elmer Envision detector. The percentage of inhibition is reported. The formula used to calculate the percentage of inhibition is [(X−Y)/X]×100, where X is the signal determined in the absence of the inhibitor and Y is the signal obtained in the presence of the inhibitor. The concentration at which 50% of efficacy of inhibition is observed (EC50) was determined by analysis of a concentration range of the tested compound in triplicates. The non-linear regression fittings with sigmoidal dose-response (variable slope) were performed with GraphPad Prism 4.03 (GraphPad Software).

Experiment [2] addresses T2, His-DNMT1 (182 kDa, human) (Homo sapiens, UniProt P26358).
T2 construct: His; made in house
Briefly: hDNMT1 assay ([methyl-3H] SAM Flashplate). The class given is biochemical. Conditions: for EC50: read-out: EC50 (μM), hDNMT 1 inhibition; for inhibition at 10 µM: read-out: hDNMT 1 inhibition, Inhibition (%) 10 μM; for inhibition at 32 µM: read-out: hDNMT 1 inhibition, Inhibition (%) 32 μM. The method, then:
His-DNMT1 (182 kDa, human) was cloned, expressed and purified as described (Halby et al. Chem Bio Chem 2012, 13, 157-165). The reaction was performed in a 10 μL total reaction volume in low volume NBS™ 384-well microplates (Corning), containing the tested compound (up to 1% DMSO), 1 μM of a SAM/[methyl-^3H] SAM (3TBq/mmol, PerkinElmer) mix in a ratio of 3-to-1 (isotopic dilution 1*:3), 0.3 μM of biotinylated hemimethylated DNA duplex (5′-GATmCGCmCGATGmCGmCGAATmCGmCGATmCGATGmCGAT-3′ and BIOT-5′-[…]-3′), and 90 nM of DNMT1 in methylation buffer (20 mM HEPES pH 7.2, 1 mM EDTA, 50 mM KCl, 25 μg/mL BSA). The reaction was incubated at 37° C. for 2 hours. 8 μL are then transferred into a streptavidin 96-well scintillant coated Flashplate™ (PerkinElmer) containing 190 μL of 20 μM SAH in 50 mM Tris-HCl pH 7.4. The Flashplate™ was agitated at room temperature for 1 hour and read in 200 μL of 50 mM Tris-HCl pH 7.4 on TopCount NXT (PerkinElmer). The percentage of inhibition is reported. The formula used to calculate the percentage of inhibition is [(X−Y)/X]×100, where X is the signal determined in the absence of the inhibitor and Y is the signal obtained in the presence of the inhibitor.

The test system of experiment [3] is luciferase reporter gene under control of methylated CMV promoter in KG-1 cells. Briefly: CMV-luc reexpression in KG-1 cells. Conditions: for Induction Fold (IF) of luciferase gene reporter in KG-1 CMV-Luc: 24 h, vs DMSO; for IF-24 h, KG1 CMV-Luc model: at 5 μM, 24 h (Table 5). The class given is cell-based, human. How it is done: KG-1 cells were stably transfected with the firefly luciferase reporter gene (luc+ from pGL3; Promega) under the control of the cytomegalovirus (CMV) promoter (from pEGFP-N1; Clontech Laboratories Inc.) partially methylated (50%). 20,000 cells per well were seeded in a 96-well plate. After 24 h incubation in the presence of the test compound or solvant (DMSO), the induction of the promoter was measured by quantification of the luciferase signal with the Brite-lite assay system (PerkinElmer) according to the manufacturer's protocol. The luminescence was measured on an EnVision multilabel plate reader (PerkinElmer), and the data are expressed as the fold induction as compared with the DMSO control. The mean of three experiments and the standard error is reported.

Experiment [4] relates to HCT116 (colorectal cancer). As to the kind of experiment: Anti-proliferative activity (ATPLite). It counts as cell-based. Particulars: Homo sapiens, HCT-116; daily treatment, cell viability by ATPLite; read-out: Antiproliferative activity: IC50 (μM) HCT116 (colorectal cancer). How it is done:
(§1) To measure the anti-proliferative properties of tested molecules, 2×10^4 cells are seeded at day 0 in a 96 wells plate. The compounds to be tested, stored at −20° C. as 10^−2 M stock solution in 100% DMSO, are freshly diluted on day 1 in the cell medium, before adding a dose range of 3.2 nM to 10 μM to the cells. Cells are treated everyday and cell viability assessed after 3 days or 7 days of treatment. The cell viability is assessed using the ATPLite kit from Perkin (ATPlite 1 Step Luminescence Assay System, ref 3016739), following the provider instructions. The raw data are analyzed with GraphPad Prism software (v4.03) to generate IC50 values corresponding to the compound concentrations giving 50% reduction in cell viability. The values presented are the mean results of at least two independent experiments. The standard errors are indicated.

Experiment [5] relates to KG-1 (leukemia). Briefly: Anti-proliferative activity (ATPLite). It counts as cell-based. Particulars: Homo sapiens; daily treatment, cell viability by ATPLite; read-out: Antiproliferative activity: IC50 (μM) KG-1 (leukemia). How it is done:
as §1

Setting [6] is: concentration at which 50% of efficacy of inhibition is observed, read-out: EC50 (μM), hDNMT 3A inhibition.
Setting [7] is: interval line below the EC50 of the same compound, read-out: EC50 (μM), range given.

T2 sequence (P26358 whole entry): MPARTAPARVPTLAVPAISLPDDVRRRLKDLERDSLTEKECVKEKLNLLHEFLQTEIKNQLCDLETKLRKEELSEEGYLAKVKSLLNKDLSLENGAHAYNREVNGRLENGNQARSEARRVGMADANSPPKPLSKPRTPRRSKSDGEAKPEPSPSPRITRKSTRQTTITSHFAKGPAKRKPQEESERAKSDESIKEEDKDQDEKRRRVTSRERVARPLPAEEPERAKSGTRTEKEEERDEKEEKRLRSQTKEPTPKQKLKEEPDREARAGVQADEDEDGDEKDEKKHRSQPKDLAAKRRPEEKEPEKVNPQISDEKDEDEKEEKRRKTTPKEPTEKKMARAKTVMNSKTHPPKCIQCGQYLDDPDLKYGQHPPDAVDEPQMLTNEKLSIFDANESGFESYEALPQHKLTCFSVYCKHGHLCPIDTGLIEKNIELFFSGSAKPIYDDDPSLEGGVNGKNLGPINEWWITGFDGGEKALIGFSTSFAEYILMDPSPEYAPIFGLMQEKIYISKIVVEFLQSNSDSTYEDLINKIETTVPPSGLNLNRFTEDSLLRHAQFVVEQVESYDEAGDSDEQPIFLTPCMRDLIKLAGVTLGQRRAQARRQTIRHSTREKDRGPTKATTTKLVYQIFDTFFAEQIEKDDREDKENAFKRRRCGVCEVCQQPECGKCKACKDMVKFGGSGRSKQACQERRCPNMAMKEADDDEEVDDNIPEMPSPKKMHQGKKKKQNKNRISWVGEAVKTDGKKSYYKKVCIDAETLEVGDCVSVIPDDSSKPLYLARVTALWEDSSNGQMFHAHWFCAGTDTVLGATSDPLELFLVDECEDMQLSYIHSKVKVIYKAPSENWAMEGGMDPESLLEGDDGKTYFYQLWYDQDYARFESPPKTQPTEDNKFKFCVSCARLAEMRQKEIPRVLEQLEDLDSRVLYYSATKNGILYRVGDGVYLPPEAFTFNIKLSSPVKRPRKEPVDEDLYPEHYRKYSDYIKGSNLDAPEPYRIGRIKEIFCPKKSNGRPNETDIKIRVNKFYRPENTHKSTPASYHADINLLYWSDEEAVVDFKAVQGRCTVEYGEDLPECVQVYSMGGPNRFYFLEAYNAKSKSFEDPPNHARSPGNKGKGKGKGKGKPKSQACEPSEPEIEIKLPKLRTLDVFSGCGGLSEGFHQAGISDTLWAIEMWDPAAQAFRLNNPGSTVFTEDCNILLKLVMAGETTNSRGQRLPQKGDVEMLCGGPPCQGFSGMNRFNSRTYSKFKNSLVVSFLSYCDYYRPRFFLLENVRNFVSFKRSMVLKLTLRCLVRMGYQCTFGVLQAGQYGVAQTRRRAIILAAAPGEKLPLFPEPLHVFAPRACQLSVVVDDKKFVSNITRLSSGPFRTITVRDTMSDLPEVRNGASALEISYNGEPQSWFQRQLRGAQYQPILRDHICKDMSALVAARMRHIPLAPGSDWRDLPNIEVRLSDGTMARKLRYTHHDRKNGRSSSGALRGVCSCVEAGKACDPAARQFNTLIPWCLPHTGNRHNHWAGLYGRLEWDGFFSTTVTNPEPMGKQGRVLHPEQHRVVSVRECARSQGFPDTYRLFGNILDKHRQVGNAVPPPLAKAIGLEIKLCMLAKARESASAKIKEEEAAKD
T1 sequence (Q9Y6K1 627-912 limits assumed): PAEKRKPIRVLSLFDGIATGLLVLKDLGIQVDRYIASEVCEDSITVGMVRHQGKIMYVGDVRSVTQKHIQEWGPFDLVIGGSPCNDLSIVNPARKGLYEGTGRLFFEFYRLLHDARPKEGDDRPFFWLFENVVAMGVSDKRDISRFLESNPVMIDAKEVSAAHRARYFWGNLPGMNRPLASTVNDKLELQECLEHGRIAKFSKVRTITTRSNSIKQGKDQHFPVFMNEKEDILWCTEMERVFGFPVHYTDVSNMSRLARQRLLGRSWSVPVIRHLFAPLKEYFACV

Regarding `CCN(CC)CCCNC(=S)N1CCc2cc3c4cc2[C@@H]1Cc1ccc(OC)c(c1)Oc1ccc(cc1)C[C@H]1c2c(cc(OC)c(c2O4)O3)CCN1C` [Product 42], the figures for the EC50 in experiment [1] (setting [6]), in experiment [1] (setting [7]) and in experiment [2] were 0.64 µM, 0.47 to 0.86 µM and 10.6 ± 2.8 µM, respectively. Further, the inhibition at 10 µM in experiment [1] was 98%; in experiment [2], 38%. Moreover, the inhibition at 32 µM in experiment [1] was 98%; in experiment [2] it was 100%. The “Induction Fold (IF) of luciferase gene reporter in KG-1 CMV-Luc” value was 1.2 ± 0.1 in experiment [3] (0.1 μM); 1.3 ± 0.1 in experiment [3] (0.32 μM); 1.5 ± 0.1 in experiment [3] (1 μM); 2.0 ± 0.2 in experiment [3] (3.2 μM); 2.3 ± 0.1 in experiment [3] (5 μM). Also, the “IF-24 h, KG1 CMV-Luc model” value in experiment [3] was 1.1 ± 0.6. Also, the results for the IC50 in experiment [4] and in experiment [5] were 0.5 ± 0.01 µM and 3.57 ± 0.04 µM, respectively.
Consider `C=CC(=O)N1CCc2cc(OC)c3c4c2C1Cc1ccc(cc1)Oc1cc(ccc1OC)C[C@H]1c2cc(c(cc2CCN1C)O3)O4` (stereo partly shown) [Product 31], for which, in experiment [1], the inhibition at 10 µM is 43% and the inhibition at 32 µM was found to be 79%.
With `CCN(CC)CCCNC(=O)N1CCc2cc3c4cc2[C@@H]1Cc1ccc(OC)c(c1)Oc1ccc(cc1)C[C@H]1c2c(cc(OC)c(c2O4)O3)CCN1C(=O)NCCCN(CC)CC` [Product 48], the EC50 was 1.93 µM in experiment [1] (setting [6]), 1 to 3.72 µM in experiment [1] (setting [7]) and 14.6 ± 1.3 µM in experiment [2]. For the same molecule, the inhibition at 10 µM in experiment [1] came out at 82%; in experiment [2], 32%. In addition, the inhibition at 32 µM in experiment [1] and in experiment [2] was 98% each time. Also, the “Induction Fold (IF) of luciferase gene reporter in KG-1 CMV-Luc” value turned out to be 1.1 ± 0.1 in experiment [3] (0.1 μM); 1.2 ± 0.3 in experiment [3] (0.32 μM); 1.2 ± 0.1 in experiment [3] (1 μM); 1.2 ± 0.1 in experiment [3] (3.2 μM); 1.3 ± 0.1 in experiment [3] (5 μM); 2.3 ± 1.3 in experiment [3] (10 μM). Further, the “IF-24 h, KG1 CMV-Luc model” value in experiment [3] was found to be 1.1.
On to `CNC(=O)N1CCc2cc3c4cc2[C@@H]1Cc1ccc(OC)c(c1)Oc1ccc(cc1)C[C@H]1c2c(cc(OC)c(c2O4)O3)CCN1C` [Product 45], for which, in experiment [1], the inhibition at 10 µM stood at 31% and the inhibition at 32 µM amounted to 73%.
In the same order, the values of `CNC(=S)N1CCc2cc3c4cc2[C@@H]1Cc1ccc(OC)c(c1)Oc1ccc(cc1)C[C@H]1c2c(cc(OC)c(c2O4)O3)CCN1C(=S)NC` [Product 47] are 10% and 40%.
As to `CNC(=S)N1CCc2cc(OC)c3c4c2[C@@H]1Cc1ccc(cc1)Oc1cc(ccc1OC)C[C@H]1c2cc(c(cc2CCN1C)O3)O4` [Product 14], the EC50 in experiment [1] (setting [6]) worked out at 1.91 µM. In addition, the EC50 in experiment [1] (setting [7]) was 1.15 to 3.18 µM. Besides, in experiment [1], the inhibition at 10 µM came out at 93% and the inhibition at 32 µM was determined as 96%.
For the molecule `COc1ccc2cc1Oc1ccc(cc1)CC1c3c(cc(OC)c4c3Oc3cc5c(cc3O4)CCN(C)[C@H]5C2)CCN1C(=O)/C=C/CN(C)C` (stereo partly shown) [Product 33], in experiment [1], the inhibition at 10 µM came to 32% and the inhibition at 32 µM was determined as 87%.
For the molecule `CCN(CC)CCCNC(=O)N1CCc2cc(OC)c3c4c2[C@@H]1Cc1ccc(cc1)Oc1cc(ccc1OC)C[C@H]1c2cc(c(cc2CCN1C)O3)O4` [Product 49], the EC50 in experiment [1] (setting [6]) was 6.1 µM; in experiment [1] (setting [7]), 3.72 to 10 µM. In addition, the inhibition at 10 µM in experiment [1] worked out at 60%. Moreover, in experiment [1], the inhibition at 32 µM is 75%.
As for `COc1ccc2cc1Oc1ccc(cc1)C[C@H]1c3c(cc(OC)c4c3Oc3cc5c(cc3O4)CCN(CCCCn3cnc4c(N)ncnc43)[C@H]5C2)CCN1C` [Product 25], in experiment [1], the inhibition at 10 µM came to 46% and the inhibition at 32 µM stood at 72%.
In the same order, the values of `COc1ccc2cc1Oc1ccc(cc1)C[C@H]1c3c(cc(OC)c4c3Oc3cc5c(cc3O4)CCN(CC#N)[C@H]5C2)CCN1C` [Product 20] are 50% and 66%.
In the same order, the values of `COc1ccc2cc1Oc1ccc(cc1)C[C@H]1c3c(cc(OC)c4c3Oc3cc5c(cc3O4)CCN(C)[C@H]5C2)CCN1CC#N` [Product 17] are 69% and 79%.
Consider `CCN(CC)CCCNC(=S)N1CCc2cc(OC)c3c4c2[C@@H]1Cc1ccc(cc1)Oc1cc(ccc1OC)C[C@H]1c2cc(c(cc2CCN1C)O3)O4` [Product 12], for which the EC50 in experiment [1] (setting [6]) was 2.67 to 3.8 µM. Moreover, in experiment [1], the inhibition at 10 µM is 78% and the inhibition at 32 µM worked out at 93%.
As to `CNC(=O)N1CCc2cc3c4cc2[C@@H]1Cc1ccc(OC)c(c1)Oc1ccc(cc1)C[C@H]1c2c(cc(OC)c(c2O4)O3)CCN1C(=O)NC` [Product 43], in experiment [1], the inhibition at 10 µM was determined as 24% and the inhibition at 32 µM was 49%.
With `COc1cc2c3c4c1Oc1cc5c(cc1O4)[C@H](Cc1ccc(OS(=O)(=O)C(F)(F)F)c(c1)Oc1ccc(cc1)C[C@@H]3N(C)CC2)N(C)CC5` [Product 54], in experiment [1], the inhibition at 10 µM came out at 0% and the inhibition at 32 µM was determined as 32%.
As for `COc1ccc2cc1Oc1ccc(cc1)CC1c3c(cc(OC)c4c3Oc3cc5c(cc3O4)CCN(C)[C@H]5C2)CCN1C(=O)C1CCC(CN2C(=O)C=CC2=O)CC1` (stereo partly shown) [Product 30], the EC50 in experiment [1] (setting [6]) was in the range of 4.19 to 9.36 µM. In experiment [1], the inhibition at 10 µM worked out at 66% and the inhibition at 32 µM is 88%.
